Laboratory results taken from patent US20220267801A1, “ELIMINATION OF PROLIFERATING CELLS FROM STEM CELL-DERIVED GRAFTS” (Research Development Foundation, priority 2016, published 2022).
“Also recorded” adds a separate entry of the source.

What was measured:
[1] = tested on: TK-NPCs (neurosphere-derived neural precursor cells); test: Calcein cell viability assay, ganciclovir time course on TK-NPC; assay type: cell-based, human; conditions: 40 μM ganciclovir
Protocol: (§1) The time course of the ganciclovir effect was also investigated (FIG. 2D). TK PSCs were killed by Ganciclovir (40 μM) within 4 days. TK-NPCs after 1 week of neurosphere differentiation were still sensitive to Ganciclovir (40 μM), however the time course of killing was markedly slowed down and complete killing was observed only after 8 days.
Generation of neurospheres containing DA neuropecursors: NPC were generated as neurospheres to contain DA progenitors as described previously (Tieng et al., 2014). Briefly, neural midbrain orientation is performed during the first week followed by 2 additional weeks of maturation to obtain 1 week or 2 or 3 week-old NPC (FIGS. 1B, 3A).
(§2) Cell proliferation measurement by calcein assay: Cells were plated onto a 96 wells pre-coated with polyornothine+ECM (1/50). Respectively 1000 cells for pluripotent stem cells, 5000 cells for early NPC and 30000 cells for late NPC. Ganciclovir (Cemevene diluted in PBS, Roche) treatment was added the day after cell plating for PSC, 3 days later for early NPC and one week later for late NPC. Calcein (2 μM) was added for different time course of ganciclovir treatment (24 H to 96 H). Cell survival was measured by calcein integration after 24 h of incubation in a 37° C. incubator.

[2] = tested on: regular PSCs (not transduced with the TK construct); test: Calcein cell viability assay, ganciclovir on control PSC; assay type: cell-based, human; conditions: concentrations up to 40 μM
Protocol: (§3) The impact of ganciclovir on TK cells was determined in vitro (FIG. 2B, 2C, 2D). TK PSCs were highly sensitive to ganciclovir exposure (96 h) and even at ganciclovir concentrations of 2.5 μM loss of cells was observed, which was almost complete at 10 μM (FIG. 2B, 2C). In contrast, regular PSCs (i.e., not transduced with the TK construct) were resistant to ganciclovir even at concentrations of 40 μM (FIG. 2B, 2F). As expected from the lack of TK expression in TK neurons, TK neurons were not affected by ganciclovir concentrations up to 40 μM, similar to the control neurons.
as §2

[3] = tested on: teratoma from transplanted TK-PSC; test: TK-PSC transplantation into striatum of NOD/SCID mice, ganciclovir treatment, teratoma formation; assay type: in vivo
Protocol: (§4) FIGS. 3A-3C: Schedule of cell transplantation and ganciclovir treatment. Different transplantation and ganciclovir treatment protocols were used. (A) Schematic representation of the differentiation protocol towards DA neurons. Pluripotent stem cells were cultured as neurospheres for 1 week for midbrain orientation phase, followed by a 2 or 3 week-maturation phase. (B) Transplantation of undifferentiated pluripotent stem cells with early or late ganciclovir treatment. Early treatment: undifferentiated pluripotent stem cells were transplanted and ganciclovir (or PBS control) was applied by daily intra-peritoneal injection from day 4 to day 19 post-transplantation. Late treatment: undifferentiated pluripotent stem cells were transplanted and ganciclovir (or PBS control) was applied by daily intra-peritoneal injection from day 30 to day 45 post-transplantation. (C) Transplantation of 2 or 3 week NPC: NPC containing- neurospheres were dissociated and transplanted into mice striatum. Ganciclovir (or PBS control) treatment was given from day 4 to day 19 post-transplantation. For all protocols, animals were sacrificed 1 month after termination of ganciclovir treatment.
Early, but not late ganciclovir treatment prevents tumor formation upon transplantation of highly proliferative pluripotent stem cells: Given the encouraging results in vitro, it was investigated whether ganciclovir could prevent tumor formation in vivo. For this purpose TK-PSC were transplanted into the striatum of NOD/SCID mice. […] There was a moderate amount of mouse microglia invasion.
It was next investigated whether ganciclovir could also be used to treat already established teratomas. […] Mice were sacrificed 30 days after the end of the ganciclovir treatment.
(§5) Stereotaxic engraftment and ganciclovir treatment: Undifferentiated pluripotent stem cells (20000 cells/ μL) and dissociated neurospheres (100.000 cells/μL) were injected in the striatum of anesthetized mice using a 27-G Hamilton syringe. Injection coordinates for lateral striatum were: bregma=0.74 mm, mediolateral=2.25 mm, dorsoventral=3.5 mm; for medial striatum: bregma=0.74 mm, mediolateral=1.4 mm, dorsoventral=2.8 mm. Mice were euthanized one month later after ganciclovir termination.
Morphological and Phenotypic Analysis of Injected Surviving Cells: Anesthetized mice were fixed by intracardiac perfusion of 4% paraformaldehyde in phosphate-buffered saline. Immunohistochemical detection was performed on 10-μm thick free-floating cryostat sections using Alexa 488®-, or 555-labeled secondary antibodies or the biotin—avidin—peroxidase complex method (Vector). The following primary antibodies were used: Nestin (rabbit polyclonal anti-human, from Chemicon, 1/400), β3-tubulin (mouse monoclonal from Sigma or rabbit polyclonal from Covance, 1/2000), Neuronal Nuclei-specific protein (NeuN, mouse monoclonal from Chemicon, 1/1000), Glial Fibrillary Acidic Protein (GFAP, rabbit polyclonal from Dako, 1/2000), Proliferating Cell Nuclear Antigen (PCNA, mouse monoclonal from Dako, 1/100), Tyrosin Hydroxylase (TH, rabbit polyclonal from millipore, 1/500), iba 1 (polyclonal rabbit from Wako, 1/500), HSV-TK (mouse monoclonal, Gentaur, 1/100), ki67 (monoclonal rabbit, Abcam, 1/100 or mouse, Chemicon, 1/100).

[4] = tested on: TK-PSC (HS415 pluripotent stem cells expressing HSV-TK under Ki67 promoter); test: Calcein cell viability assay, ganciclovir on TK-PSC; assay type: cell-based, human
Protocol: as §3, §1, §2

TK neurons = test: Calcein cell viability assay, ganciclovir on TK-neurons; assay type: cell-based, human; conditions: concentrations up to 40 μM
Protocol: as §3
(§6) Generation of NPC in two dimensional culture (2D): For differentiation in 2D, 3-week old neurospheres were dissociated with ACCUMAX® (Millipore) and replated on polyornithine- (15 μg/mL; Sigma) and laminin- (2 μg/cm^2; R&D System) coated cover slips (diameter=0.8cm) in 24-well plates at 200,000 cells/cm^2 in maturation medium for 1 week before analysis by immunofluorescence staining (FIG. 1B).
(§7) Cell proliferation measurement by calcein assay: Cells were plated onto a 96 wells pre-coated with polyornothine+ECM (1/50). Respectively 1000 cells for pluripotent stem cells, 5000 cells for early NPC and 30000 cells for late NPC. […] Cell survival was measured by calcein integration after 24 h of incubation in a 37° C. incubator.

control neurons = test: Calcein cell viability assay, ganciclovir on control neurons; assay type: cell-based, human; conditions: concentrations up to 40 μM
Protocol: as §3, §6, §7

[5] = tested on: transplanted TK-NPC graft; test: Transplantation of 2-3 week NPC neurospheres into mouse striatum, ganciclovir treatment; assay type: in vivo, mice
Protocol: as §4
Transplantation of TK-NPCs produced mature neurons which were not sensitive to ganciclovir treatment: The in vivo results, shown so far, were obtained with transplantation of undifferentiated pluripotent stem cells. However, the final goal of neuronal cell therapy is the transplantation of neural precursor cells, which should differentiate into mature neurons and be resistant to ganciclovir treatment. Therefore, 2-3 weeks-NPC containing neurospheres were transplanted (FIGS. 3C, 8). Under these conditions, no tumor formation was observed, even in the absence of ganciclovir treatment (FIG. 8A). In line with these observations, the transplanted cells (assessed by immunofluorescence 7 weeks after transplantation) were abundantly positive for beta 3 tubulin (FIG. 8B, upper panel), while a smaller fraction of cells was TH-positive (FIG. 8B, lower panel). Occasionally nestin-positive cells were observed.
Markers of cellular proliferation were analyzed by staining of the transplants with antibodies against PCNA and Ki67 (FIG. 8C). […] To verify whether the PCNA-positive, Ki67-negative cells were proliferating cells, BrdU experiments were performed.
as §5, with “Mice were euthanized one month later after ganciclovir termination.” left out

[6] = early treatment, one month after termination of treatment

Nc1nc(O)c2ncn(COC(CO)CO)c2n1 [ganciclovir]
time to complete killing of TK-NPCs ([1]; TK-NPCs after 1 week of neurosphere differentiation): 8 days | killing of TK-NPCs ([1]; TK-NPCs after 2 weeks of neurosphere differentiation): not killed | sensitivity of regular (control) PSCs to ganciclovir [2]: resistant; also recorded: no ganciclovir toxicity is observed | tumor development (graft surface) ([3]; early ganciclovir treatment): completely prevented | Ki67 and TK expression in the graft region [3, 6]: virtually no Ki67 and TK expression | human cells (HCM) remaining in the graft [3, 6]: hardly any human cells left; also recorded: barely detectable | teratoma formation ([3]; early treatment: 15 days, starting 4 days post-transplantation, daily i.p.): no observed teratomas; also recorded: absence of teratoma formation | tumor size (graft surface) ([3]; late ganciclovir treatment): did not have any effect | teratoma formation ([3]; late treatment: days 30-45 post-transplantation, sacrifice 30 days after end of treatment): teratoma formation; also recorded: no difference | time to killing of TK PSCs ([4]; 40 μM ganciclovir): ≤ 4 days | ganciclovir concentration at which loss of cells was almost complete ([4]; TK PSCs, 96 h exposure): 10 µM | ganciclovir concentration at which loss of cells was observed ([4]; TK PSCs, 96 h exposure): 2.5 µM | effect of ganciclovir on TK neurons (TK neurons): not affected; also recorded: lose their sensitivity | effect of ganciclovir on control neurons (control neurons): not affected | size of transplants (graft surface) ([5]; NPC from 2-3 weeks old neurospheres, early ganciclovir treatment): not affected | proliferation marker pattern of transplants (PCNA positive, Ki67 low to absent) ([5]; ganciclovir vs control): did not alter this pattern | neural markers of transplanted cells (beta 3 tubulin, TH, nestin) ([5]; immunofluorescence 7 weeks after transplantation): None of these markers were affected | graft development, ganciclovir vs PBS ([5]; sacrifice 4 weeks after termination of treatment): No difference
